Measurements reported in PubChem BioAssay (NCI).
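Growth conditions: 96-well plates. Treatment: test compound, 48 hours, 5 concentrations. Analysis: linear interpolation between bracketing concentrations; unreached endpoints set to highest concentration. TGI marks complete inhibition of growth.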

What was measured:
Assay in all cases: DTP human tumour cell line panel, 48 h
[1] = tested on: HCT-15 colon
[2] = tested on: SK-MEL-2 melanoma
[3] = tested on: OVCAR-8 ovarian
[4] = tested on: A549 NSCLC
[5] = tested on: SK-MEL-28 melanoma
[6] = tested on: RPMI-8226 leukemia
[7] = tested on: LOX IMVI melanoma
[8] = tested on: SK-MEL-5 melanoma
[9] = tested on: SN12C renal
[10] = tested on: OVCAR-4 ovarian
[11] = tested on: U251 CNS
[12] = tested on: T-47D breast
[13] = tested on: SW-620 colon

Structure (SMILES)	TGI [1]	TGI [2]	TGI [3]	TGI [4]	TGI [5]	TGI [6]	TGI [7]	TGI [8]	TGI [9]	TGI [10]	TGI [11]	TGI [12]	TGI [13]
CCCCCCCCCCCCCCCCCCNc1ccn(C2OC(COP(=O)(O)O)C(O)C2O)c(=O)n1 (stereo not given)	> 100 µM	> 100 µM	> 100 µM	> 100 µM	> 100 µM	> 100 µM	> 100 µM	> 100 µM	> 100 µM	> 100 µM	> 100 µM	> 100 µM	> 100 µM
C=C(C)CCC1CCCCC(CN(C)C)C1=O (stereo not given)	> 100 µM	> 100 µM	> 100 µM	> 100 µM	> 100 µM	> 100 µM	> 100 µM	> 100 µM	> 100 µM	> 100 µM	> 100 µM	> 100 µM	> 100 µM
c1ccc2c(c1)CCc1c-2n(CCN2CCCCC2)c2ccccc12	22.9 µM	30.2 µM	32 µM	43.7 µM	50.9 µM	40.3 µM	29.6 µM	12.9 µM	36.9 µM	59.4 µM	30.3 µM	44.5 µM	50.1 µM
COC(=O)C1OC(O[C@H]2CC[C@]3(C)[C@H]4CC=C5[C@@H]6CC(C)(C)CC[C@]6(C(=O)OC)[C@H](O)C[C@@]5(C)[C@]4(C)CC[C@H]3C2(C)C)C(O)C(O)C1O (stereo not given in full)	22.2 µM	28.7 µM	27.3 µM	17.4 µM	23.8 µM	27.4 µM	17.1 µM	26.2 µM	25.9 µM	19.7 µM	23.9 µM	28.6 µM	24.9 µM
O=C1Oc2ccccc2C(=O)/C1=C/N1C(=O)/C(=C/c2ccc([N+](=O)[O-])cc2)SC1=S	61.7 µM	82.4 µM	96.7 µM	> 100 µM	85.7 µM	42.1 µM	> 100 µM	46.4 µM	51.6 µM	> 100 µM	> 100 µM	51.7 µM	> 100 µM
COC(=O)C1=NN2c3ccccc3C(=O)OCCC2C1 (stereo not given)	> 100 µM	> 100 µM	> 100 µM	> 100 µM	> 100 µM	> 100 µM	> 100 µM	> 100 µM	> 100 µM	> 100 µM	> 100 µM	> 100 µM	> 100 µM
Clc1ccc(OCc2nnc3sc(-c4ccc(-c5ccc(Cl)cc5Cl)o4)nn23)c(Cl)c1	49.9 µM	32.1 µM	32.1 µM	46.8 µM	60.9 µM	57.2 µM	36.2 µM	44.4 µM	38.9 µM	> 100 µM	37.5 µM	54.6 µM	> 100 µM
CO/N=C1\CCC2(O)C3Cc4ccc(O)c5c4C2(CCN3CC2CC2)[C@H]1O5 (stereo not given in full)	> 100 µM	> 100 µM	> 100 µM	> 100 µM	> 100 µM	> 100 µM	> 100 µM	> 100 µM	> 100 µM	> 100 µM	> 100 µM	> 100 µM	> 100 µM
N#Cc1c(=O)c2cc([N+](=O)[O-])ccc2n2c1[nH]c1ccccc12	> 61.6 µM	> 69.1 µM	> 79.5 µM	> 100 µM	> 64.8 µM	> 100 µM	> 50.4 µM	28.3 µM	> 100 µM	> 100 µM	> 92.6 µM	> 72.7 µM	> 100 µM
O=c1c2cc(Br)ccc2oc2nc3n(c(=O)c12)CCCS3	> 100 µM	> 100 µM	> 100 µM	> 100 µM	> 100 µM	> 100 µM	> 100 µM	> 100 µM	> 100 µM	> 100 µM	> 100 µM	> 100 µM	> 100 µM
CC(SC(=S)N1CCCCC1)C(=O)Nc1nnc(-c2ccc(Cl)cc2)o1 (stereo not given)	> 100 µM	77.1 µM	> 100 µM	> 100 µM	> 100 µM	51.5 µM	> 100 µM	> 100 µM	51.6 µM	> 100 µM	> 100 µM	> 100 µM	> 100 µM
CCC(=O)OCc1ccc2oc(=O)c(C(=O)Oc3cncc(Cl)c3)cc2c1	> 100 µM	> 100 µM	> 100 µM	> 100 µM	> 100 µM	> 100 µM	> 100 µM	> 100 µM	> 100 µM	> 100 µM	> 100 µM	> 100 µM	> 100 µM
C=C1C(=O)OC2/C=C(\C)C(O)CC(O)C(C)(O)CC(OC(=O)/C(C)=C/C)C12 (stereo not given)	> 100 µM	> 100 µM	> 100 µM	> 100 µM	> 100 µM	74.2 µM	> 100 µM	> 100 µM	> 100 µM	> 100 µM	> 100 µM	> 100 µM	> 100 µM
Cc1cccc2sc(NC(=O)c3cc([N+](=O)[O-])ccc3Cl)nc12	> 29.1 µM	> 100 µM	9.95 µM	51.7 µM	> 94.2 µM	> 100 µM	6.64 µM	5.32 µM	3.34 µM	> 100 µM	11.4 µM	> 100 µM	6.35 µM
COc1ccc(/C=C2\CN(C)CC3=C2OC(N)=C(C#N)C3c2ccc(OC)cc2)cc1 (stereo not given)	> 100 µM	> 65.5 µM	> 100 µM	> 100 µM	> 100 µM	> 43.9 µM	> 100 µM	> 100 µM	> 100 µM	> 100 µM	> 100 µM	> 100 µM	> 100 µM
